Source: publication PMC9875641, “Ophthalmic Solution of Smart Supramolecular Peptides to Capture Semaphorin 4D against Diabetic Retinopathy” (Advanced Science, 2022)

Tests used:
retina = assay: Biosafety in the retina after intraocular injection; format: in vivo, mouse; conditions: for pathological changes in the retina (HE staining): 30 d after intraocular injection; for abnormalities in retinal pigment epithelium, rod and cone layer, outer nuclear layer and retinal ganglion cells (electron microscopy): mouse, in vivo
From the text: After 30 d of SSP‐1 and SSP‐2 intraocular injection, the biosafety of SSP‐1 and SSP‐2 was systematically studied by H&E staining and electron microscopy.

endothelial cells = assay: Wound-healing and transwell migration of endothelial cells induced by recombinant Sema4D; format: cell-based, mouse; conditions: wound-healing and transwell assays, n = 3; effect equal to anti-Sema4D antibody
[1] = system: in vitro BRB model (ARPE-19 layer and HUVEC layer)
Zeta potential of SSPs = format: physicochemical; conditions: self-assembled SSP under aqueous condition
From the text: Artificial tears containing SSPs were developed and dropped into eyes. SSPs accumulated in the vitreous cavity. To examine the behavior of SSPs monomer in artificial tear, it was fast injected into water. Under the aqueous condition, the SSPs self‐assembled into spherical NPs or nanorods, a function of its to C16 and FFVLK domains with a hydrophobic unit. The morphology of SSP‐1 was NPs with the average size of 44.8 ± 2.9 nm. […] Besides, the zeta potential of SSP‐1 and SSP‐2 was positive charged with the value of 45.7 and 40.2 mV, respectively (Figure 3C). The positive charged SSPs penetrate blood‐eye barrier well.
(§1) In addition, KLVFF sequence, a sheet structure with strong hydrogen‐bonding was introduced into SSPs, we could distinctly observe the secondary structure of SSPs by circular dichroism (CD) spectroscopy. […] The percentage of β‐sheet after incubation with sSema4D in SSP‐1 and SSP‐2 were 85.6% and 42.3%, respectively, indicative of a highly organized packing of NFs in SSP‐1. […] The high percentage of β‐sheet structure in NFs stabilized the formation of nanostructure networks, due to its strong hydrogen‐bonding KLVFF sequence. Moreover, we carried out the cytotoxicity of SSP‐1 and SSP‐2 by using a standard CCK‐8 (Figure 3D). […] Finally, we investigated the recognition of sSema4D and SSP‐1 and SSP‐2 by confocal laser scanning microscope (CLSM).

[2] = system: mouse brain microvascular endothelial cells (MBMEC); assay: CCK-8 cytotoxicity; format: cell-based; conditions: CCK-8, 24 h incubation, concentrations up to 80 × 10^−6 M
Experimental: as §1, with “(CLSM). […]” for “(CLSM).”
pericytes were cultured in Pericyte Medium (ScienCell, USA). bEnd.3 cells were purchased from ATCC and grown in DMEM with 10% fetal bovine serum.
Preparation method of nanoparticles. The nanomaterials FG-12 and FH-12 were added to a 1:1 mixture of propylene glycol and ethanol solution to form a 2 mM mother liquor. The mother solution was diluted in normal saline at 1:100 dilution to form a 20 μM nanoparticle solution. […]
solution was added. After 2 h incubation with CCK8 solution at 37℃ in a 5% CO2 atmosphere, the […] was evaluated by a fluorescence microplate reader (PerkinElmer, Waltham, MA, USA). real-time PCR. […]

STZ model = assay: STZ-induced retinopathy model, retinal vascular leakage; format: in vivo, mouse; conditions: for reduction of retinal vascular leakage by eye drops plus anti-VEGF injection compared with anti-VEGF injection alone: Evans blue, anti-VEGF antibody 2 µg intravitreal at third month, eye drops twice a day for 30 d, on average; for reduction of retinal vascular leakage by eye drops plus anti-VEGF injection compared with anti-VEGF injection alone / vascular leakage (Evans blue assay): n = 9; for diabetes-induced retinal acellular capillary formation: eye drops 10 µL per eye twice daily for 30 d, PDGFRb/collagen IV staining, n = 6
Experimental: follows: 5’-[…]-3’, 5’-
STZ. Eight-week-old male C57BL/6 mice were starved for 4 hours before each […]
injection of streptozotocin (STZ, Sigma, St. Louis, MO), and then injected with STZ […]
(50 mg/kg) for 5 consecutive days. Mice in the vehicle control group were […]
intraperitoneally injected with citrate buffer for 5 consecutive days. A blood glucose […]
meter (ONETOUCH, Johnson & Johnson, USA) was used to evaluate the fasting […]
blood glucose of the mice 7 days after the last injection of STZ. Mice with blood […]
glucose levels greater than or equal to 16.7 mM were considered successful in STZ […]
modeling. […]
Evans blue assay. Mice were intraperitoneally injected with Evans Blue dye (200 mg/kg) and circulated for 5 hours. The mice were perfused with PBS, and the eyes were fixed with 4% PFA at 4 degrees Celsius for 12 hours, and the retina was separated. Some retinas are tested for Evans Blue fluorescence using a fluorescence microscope. Adding formamide (70 μL/piece) to the rest of the retina and incubate overnight at 70°C to extract the […]. Detect the absorbance of formamide at 620/740 nm (background) with a microplate reader. Calculate the content of Evans blue in the retina from the standard curve, and then standardize it based on the weight of the retina and the content of Evans blue in the blood. […]
Statistical analysis. Statistical analysis was conducted using Graphpad Prism 8.0 software. All data were expressed by mean ± SD. Unpaired two-tailed Student’s t-test (two groups) or one-way ANOVA (more than 2 groups) was used to analyze the statistical significances of the data. Person’s correlation analysis was conducted to […]

[3] = eye drops 10 µL per eye twice daily for 30 d after third month since diabetes induction, equal to intraocular anti-Sema4D antibody
[4] = intravitreal injection at third month since diabetes induction, retinas at fourth month, similar to anti-Sema4D antibody

transfer across the in vitro BRB [1] | zeta potential (Zeta potential of SSPs) | Substance | pathological changes in the retina (HE staining) (retina) | abnormalities in retinal pigment epithelium, rod and cone layer, outer nuclear layer and retinal ganglion cells (electron microscopy) (retina) | recombinant Sema4D protein-induced endothelial cell migration (endothelial cells) | viability of MBMEC [2] | reduction of retinal vascular leakage by eye drops plus anti-VEGF injection compared with anti-VEGF injection alone (STZ model) | diabetes-induced retinal acellular capillary formation (STZ model) | vascular leakage (Evans blue assay) (STZ model; [3]) | vascular leakage (Evans blue assay) (STZ model; [4])
effectively transferred across the BRB | 40.2 mV | C16‐FFVLK‐KNKAAKG [SSP-2, smart supramolecular peptide, C16‐FFVLK‐KNKAAKG, self-assembling, captures sSema4D] | no significant pathological changes | no significant abnormalities | inhibited | ~90% | 15.49% | ameliorated | significantly decreased | significantly decreased
effectively transferred across the BRB | 45.7 mV | C16‐FFVLK‐KQKRPRH [SSP-1, smart supramolecular peptide, C16‐FFVLK‐KQKRPRH, self-assembling, captures sSema4D] | no significant pathological changes | no significant abnormalities | inhibited | ~90% | 20.21% | ameliorated | significantly decreased | significantly decreased
